Reference: US20190185518A9, “WARHEAD-CONTAINING PEPTIDOMIMETIC MACROCYCLES AS MODULATORS OF BFL-1” (AILERON Therapeutics, Inc., priority 2017, published 2019)
Positions of bridges follow the written chain, without caps; N, C: chain ends. Non-standard residues stand in square brackets, D forms with d. Residues, ends and D or L forms follow the SMILES beside them. 2Nal = N[C@@H](Cc1ccc2ccccc2c1)C(=O)O; R8 = C=CCCCCCC[C@@](C)(N)C(=O)O; S5 = C=CCCC[C@](C)(N)C(=O)O

Molecular target: Mcl-1 (Homo sapiens, UniProt Q07820)
Sequence (Q07820 whole entry, species assumed): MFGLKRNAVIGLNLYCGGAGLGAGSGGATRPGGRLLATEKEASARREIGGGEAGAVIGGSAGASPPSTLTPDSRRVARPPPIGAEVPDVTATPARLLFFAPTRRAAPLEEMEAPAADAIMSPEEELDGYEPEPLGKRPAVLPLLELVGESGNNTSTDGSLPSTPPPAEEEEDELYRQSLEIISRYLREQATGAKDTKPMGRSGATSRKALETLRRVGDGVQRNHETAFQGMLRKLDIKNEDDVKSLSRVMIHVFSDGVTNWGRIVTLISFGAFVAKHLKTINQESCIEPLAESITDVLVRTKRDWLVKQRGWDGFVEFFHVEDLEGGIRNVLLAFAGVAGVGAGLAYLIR
Assay: Ki determination for Mcl-1 (BCL-2 family binding spectrum)
Conditions: read-out: Ki MCL-1
Text: To assess the binding and affinity of compounds that antagonize the interaction between a peptide and an acceptor protein, a fluorescence polarization assay (FPA) utilizing a fluoresceinated peptidomimetic macrocycle derived from a peptidomimetic precursor sequence is used, for example. The FPA technique measures the molecular orientation and mobility using polarized light and fluorescent tracer. […] A compound that antagonizes the interaction between the fluoresceinated peptidomimetic macrocycle and an acceptor protein will be detected in a competitive binding FPA experiment.
Antagonist binding activity is measured, for example, by fluorescence polarization on a luminescence spectrophotometer (e.g. Perkin-Elmer LS50B). Kd values may be determined by nonlinear regression analysis using, for example, Graphpad Prism software (GraphPad Software, Inc., San Diego, Calif.).

Row | Ki [nM] | SMILES
1 | 3.8 | CC[C@H](C)[C@H](NC(=O)[C@H](Cc1c[nH]c2ccccc12)NC(=O)[C@H](C)NC(C)=O)C(=O)N[C@@H](C)C(=O)N[C@@H](C)C(=O)N[C@@H](C)C(=O)N[C@@H](CC(C)C)C(=O)N[C@@H](CCCNC(=N)N)C(=O)N[C@]1(C)CCCCCCC=CCCC[C@@](C)(C(=O)N[C@@H](Cc2ccc(O)cc2)C(=O)N[C@@H](Cc2ccc(O)cc2)C(=O)N[C@@H](C)C(N)=O)NC(=O)[C@H](CC(N)=O)NC(=O)[C@H](Cc2ccccc2)NC(=O)[C@H](C)NC(=O)[C@H](CC(=O)O)NC(=O)CNC(=O)[C@H]([C@@H](C)CC)NC1=O [compound 1722] (Ac-AWIAAALR[R8]IGDAFN[S5]YYA-NH2; staple 9-16)
2 | 10.2 | CC[C@H](C)[C@H](NC(C)=O)C(=O)N[C@@H](Cc1ccccc1)C(=O)N[C@H](C(=O)N[C@@H](C)C(=O)N[C@@H](C)C(=O)N[C@@H](C)C(=O)N[C@@H](CC(C)C)C(=O)N[C@@H](CCCNC(=N)N)C(=O)N[C@]1(C)CCCCCCC=CCCC[C@@](C)(C(=O)N[C@@H](Cc2ccc(O)cc2)C(=O)N[C@@H](Cc2ccc(O)cc2)C(=O)N[C@@H](C)C(N)=O)NC(=O)[C@H](CC(N)=O)NC(=O)[C@H](Cc2ccccc2)NC(=O)[C@H](C)NC(=O)[C@H](CC(=O)O)NC(=O)CNC(=O)[C@H]([C@@H](C)CC)NC1=O)[C@@H](C)CC [compound 1731] (Ac-IFIAAALR[R8]IGDAFN[S5]YYA-NH2; staple 9-16)
3 | 8 | CC[C@H](C)[C@H](NC(C)=O)C(=O)N[C@@H](Cc1c[nH]c2ccccc12)C(=O)N[C@H](C(=O)N[C@@H](C)C(=O)N[C@@H](C)C(=O)N[C@@H](C)C(=O)N[C@@H](CC(C)C)C(=O)N[C@@H](CCCNC(=N)N)C(=O)N[C@]1(C)CCCCCCC=CCCC[C@@](C)(C(=O)N[C@@H](Cc2ccc(O)cc2)C(=O)N[C@@H](Cc2ccc(O)cc2)C(=O)N[C@@H](C)C(N)=O)NC(=O)[C@H](CO)NC(=O)[C@H](Cc2ccccc2)NC(=O)[C@H](C)NC(=O)[C@H](CC(=O)O)NC(=O)CNC(=O)[C@H]([C@@H](C)CC)NC1=O)[C@@H](C)CC [compound 1751] (Ac-IWIAAALR[R8]IGDAFS[S5]YYA-NH2; staple 9-16)
4 | 2.2 | CC[C@H](C)[C@H](NC(C)=O)C(=O)N[C@@H](Cc1c[nH]c2ccccc12)C(=O)N[C@H](C(=O)N[C@@H](C)C(=O)N[C@@H](C)C(=O)N[C@@H](C)C(=O)N[C@@H](CC(C)C)C(=O)N[C@@H](CCCNC(=N)N)C(=O)N[C@]1(C)CCCCCCC=CCCC[C@@](C)(C(=O)N[C@@H](Cc2ccc(O)cc2)C(=O)N[C@@H](Cc2ccc(O)cc2)C(=O)N[C@@H](CC(=O)O)C(N)=O)NC(=O)[C@H](CC(N)=O)NC(=O)[C@H](Cc2ccccc2)NC(=O)[C@H](C)NC(=O)[C@H](CC(=O)O)NC(=O)CNC(=O)[C@H]([C@@H](C)CC)NC1=O)[C@@H](C)CC [compound 1760] (Ac-IWIAAALR[R8]IGDAFN[S5]YYD-NH2; staple 9-16)
5 | 4.6 | CC[C@H](C)[C@H](NC(C)=O)C(=O)N[C@@H](Cc1c[nH]c2ccccc12)C(=O)N[C@H](C(=O)N[C@@H](C)C(=O)N[C@@H](C)C(=O)N[C@@H](C)C(=O)N[C@@H](CC(C)C)C(=O)N[C@@H](CCCNC(=N)N)C(=O)N[C@]1(C)CCCCCCC=CCCC[C@@](C)(C(=O)N[C@@H](Cc2ccc(O)cc2)C(=O)N[C@@H](Cc2ccc(O)cc2)C(=O)N[C@@H](CCC(N)=O)C(N)=O)NC(=O)[C@H](CC(N)=O)NC(=O)[C@H](Cc2ccccc2)NC(=O)[C@H](C)NC(=O)[C@H](CC(=O)O)NC(=O)CNC(=O)[C@H]([C@@H](C)CC)NC1=O)[C@@H](C)CC [compound 1762] (Ac-IWIAAALR[R8]IGDAFN[S5]YYQ-NH2; staple 9-16)

Further lines, the compound ahead of its results:

Row | SMILES | Ki [nM]
6 | CC[C@H](C)[C@H](NC(C)=O)C(=O)N[C@@H](Cc1c[nH]cn1)C(=O)N[C@H](C(=O)N[C@@H](C)C(=O)N[C@@H](C)C(=O)N[C@@H](C)C(=O)N[C@@H](CC(C)C)C(=O)N[C@@H](CCCNC(=N)N)C(=O)N[C@]1(C)CCCCCCC=CCCC[C@@](C)(C(=O)N[C@@H](Cc2ccc(O)cc2)C(=O)N[C@@H](Cc2ccc(O)cc2)C(=O)N[C@@H](C)C(N)=O)NC(=O)[C@H](CC(N)=O)NC(=O)[C@H](Cc2ccccc2)NC(=O)[C@H](C)NC(=O)[C@H](CC(=O)O)NC(=O)CNC(=O)[C@H]([C@@H](C)CC)NC1=O)[C@@H](C)CC [compound 1727] (Ac-IHIAAALR[R8]IGDAFN[S5]YYA-NH2; staple 9-16) | 6.6
7 | CC[C@H](C)[C@H](NC(C)=O)C(=O)N[C@@H](CC(C)C)C(=O)N[C@H](C(=O)N[C@@H](C)C(=O)N[C@@H](C)C(=O)N[C@@H](C)C(=O)N[C@@H](CC(C)C)C(=O)N[C@@H](CCCNC(=N)N)C(=O)N[C@]1(C)CCCCCCC=CCCC[C@@](C)(C(=O)N[C@@H](Cc2ccc(O)cc2)C(=O)N[C@@H](Cc2ccc(O)cc2)C(=O)N[C@@H](C)C(N)=O)NC(=O)[C@H](CC(N)=O)NC(=O)[C@H](Cc2ccccc2)NC(=O)[C@H](C)NC(=O)[C@H](CC(=O)O)NC(=O)CNC(=O)[C@H]([C@@H](C)CC)NC1=O)[C@@H](C)CC [compound 1730] (Ac-ILIAAALR[R8]IGDAFN[S5]YYA-NH2; staple 9-16) | 10.2
8 | CC[C@H](C)[C@H](NC(C)=O)C(=O)N[C@@H](Cc1ccc2ccccc2c1)C(=O)N[C@H](C(=O)N[C@@H](C)C(=O)N[C@@H](C)C(=O)N[C@@H](C)C(=O)N[C@@H](CC(C)C)C(=O)N[C@@H](CCCNC(=N)N)C(=O)N[C@]1(C)CCCCCCC=CCCC[C@@](C)(C(=O)N[C@@H](Cc2ccc(O)cc2)C(=O)N[C@@H](Cc2ccc(O)cc2)C(=O)N[C@@H](C)C(N)=O)NC(=O)[C@H](CC(N)=O)NC(=O)[C@H](Cc2ccccc2)NC(=O)[C@H](C)NC(=O)[C@H](CC(=O)O)NC(=O)CNC(=O)[C@H]([C@@H](C)CC)NC1=O)[C@@H](C)CC [compound 1732] (Ac-I[2Nal]IAAALR[R8]IGDAFN[S5]YYA-NH2; staple 9-16) | 13.7
9 | CC[C@H](C)[C@H](NC(C)=O)C(=O)N[C@@H](Cc1c[nH]c2ccccc12)C(=O)N[C@H](C(=O)N[C@@H](CO)C(=O)N[C@@H](C)C(=O)N[C@@H](C)C(=O)N[C@@H](CC(C)C)C(=O)N[C@@H](CCCNC(=N)N)C(=O)N[C@]1(C)CCCCCCC=CCCC[C@@](C)(C(=O)N[C@@H](Cc2ccc(O)cc2)C(=O)N[C@@H](Cc2ccc(O)cc2)C(=O)N[C@@H](C)C(N)=O)NC(=O)[C@H](CC(N)=O)NC(=O)[C@H](Cc2ccccc2)NC(=O)[C@H](C)NC(=O)[C@H](CC(=O)O)NC(=O)CNC(=O)[C@H]([C@@H](C)CC)NC1=O)[C@@H](C)CC [compound 1733] (Ac-IWISAALR[R8]IGDAFN[S5]YYA-NH2; staple 9-16) | 3.6
10 | CC[C@H](C)[C@H](NC(C)=O)C(=O)N[C@@H](Cc1c[nH]c2ccccc12)C(=O)N[C@H](C(=O)N[C@@H](CC(C)C)C(=O)N[C@@H](C)C(=O)N[C@@H](C)C(=O)N[C@@H](CC(C)C)C(=O)N[C@@H](CCCNC(=N)N)C(=O)N[C@]1(C)CCCCCCC=CCCC[C@@](C)(C(=O)N[C@@H](Cc2ccc(O)cc2)C(=O)N[C@@H](Cc2ccc(O)cc2)C(=O)N[C@@H](C)C(N)=O)NC(=O)[C@H](CC(N)=O)NC(=O)[C@H](Cc2ccccc2)NC(=O)[C@H](C)NC(=O)[C@H](CC(=O)O)NC(=O)CNC(=O)[C@H]([C@@H](C)CC)NC1=O)[C@@H](C)CC [compound 1734] (Ac-IWILAALR[R8]IGDAFN[S5]YYA-NH2; staple 9-16) | 19.7
11 | CC[C@H](C)[C@H](NC(C)=O)C(=O)N[C@@H](Cc1c[nH]c2ccccc12)C(=O)N[C@H](C(=O)N[C@@H](C)C(=O)N[C@@H](CC(C)C)C(=O)N[C@@H](C)C(=O)N[C@@H](CC(C)C)C(=O)N[C@@H](CCCNC(=N)N)C(=O)N[C@]1(C)CCCCCCC=CCCC[C@@](C)(C(=O)N[C@@H](Cc2ccc(O)cc2)C(=O)N[C@@H](Cc2ccc(O)cc2)C(=O)N[C@@H](C)C(N)=O)NC(=O)[C@H](CC(N)=O)NC(=O)[C@H](Cc2ccccc2)NC(=O)[C@H](C)NC(=O)[C@H](CC(=O)O)NC(=O)CNC(=O)[C@H]([C@@H](C)CC)NC1=O)[C@@H](C)CC [compound 1736] (Ac-IWIALALR[R8]IGDAFN[S5]YYA-NH2; staple 9-16) | 11.6
12 | CC[C@H](C)[C@H](NC(C)=O)C(=O)N[C@@H](Cc1c[nH]c2ccccc12)C(=O)N[C@H](C(=O)N[C@@H](C)C(=O)N[C@@H](CCC(N)=O)C(=O)N[C@@H](C)C(=O)N[C@@H](CC(C)C)C(=O)N[C@@H](CCCNC(=N)N)C(=O)N[C@]1(C)CCCCCCC=CCCC[C@@](C)(C(=O)N[C@@H](Cc2ccc(O)cc2)C(=O)N[C@@H](Cc2ccc3ccccc3c2)C(=O)N[C@@H](C)C(N)=O)NC(=O)[C@H](CC(N)=O)NC(=O)[C@H](Cc2ccccc2)NC(=O)[C@H](C)NC(=O)[C@H](CC(=O)O)NC(=O)CNC(=O)[C@H]([C@@H](C)CC)NC1=O)[C@@H](C)CC [compound 1759] (Ac-IWIAQALR[R8]IGDAFN[S5]Y[2Nal]A-NH2; staple 9-16) | 8
13 | CC[C@H](C)[C@H](NC(C)=O)C(=O)N[C@@H](Cc1c[nH]c2ccccc12)C(=O)N[C@H](C(=O)N[C@@H](C)C(=O)N[C@@H](C)C(=O)N[C@@H](C)C(=O)N[C@@H](CC(C)C)C(=O)N[C@@H](CCCNC(=N)N)C(=O)N[C@]1(C)CCCCCCC=CCCC[C@@](C)(C(=O)N[C@@H](Cc2ccc(O)cc2)C(=O)N[C@@H](Cc2ccc(O)cc2)C(=O)N[C@@H](CCC(=O)O)C(N)=O)NC(=O)[C@H](CC(N)=O)NC(=O)[C@H](Cc2ccccc2)NC(=O)[C@H](C)NC(=O)[C@H](CC(=O)O)NC(=O)CNC(=O)[C@H]([C@@H](C)CC)NC1=O)[C@@H](C)CC [compound 1761] (Ac-IWIAAALR[R8]IGDAFN[S5]YYE-NH2; staple 9-16) | 1.4
